Tested on: SK-MEL-28 cells (B-RAF V600E mutated)
Experiment: Inhibition of the proliferation of cultivated human melanoma cells (SK-MEL-28), AlamarBlue
Type: cell-based
Conditions: 72 h incubation
Experimental: Measurement of the Inhibition of the Proliferation of Cultivated Human Melanoma Cells (SK-MEL-28, B-RAF^[…] Mutated)
For measuring the proliferation of cultivated human tumour cells, cells of the melanoma cell line SK-MEL-28 [from American Type Culture Collection (ATCC)] are cultivated in MEM medium, supplemented with 10% foetal calf serum, 2% sodium bicarbonate, 1 mM sodium pyruvate, 1% non-essential amino acids (e.g. from Cambrex, # BE13-114E) and 2 mM glutamine. SK-MEL-28 cells are placed in 96-well flat bottomed dishes in a density of 2500 cells per well in supplemented MEM medium (see above) and incubated overnight in an incubator (at 37° C. and 5% CO2). The active substances are added to the cells in different concentrations, so that a concentration range of 50 μM to 3.2 nM is covered. If necessary the initial concentration of 50 μM is changed to 10 μM or 2 μM and further dilution is carried out accordingly (up to 0.6 nM or 0.12 nM). After an incubation period of a further 72 h 20 μL AlamarBlue reagent (Serotec Ltd., # BUF012B) are added to each well and the cells are incubated for a further 3-6 h. The colour change of the AlamarBlue reagent is determined in a fluorescence spectrophotometer (e.g. Gemini, Molecular Devices). EC50 values are calculated using a software program (GraphPadPrizm).

| SMILES | EC50 |
| --- | --- |
| CC(C)CS(=O)(=O)Nc1ccc(F)c(-n2cc(-c3cncc(N4CCN(C5CC5)CC4)c3)nn2)c1F [Example I-29] | 0.037 µM |
| CCCS(=O)(=O)Nc1ccc(F)c(-n2cc(-c3ccc(NC(C)=O)nc3)nn2)c1F [Example I-6] | 0.559 µM |
| COc1cncc(-c2cn(-c3c(F)ccc(NS(=O)(=O)c4ccoc4)c3Cl)nn2)c1 [Example I-55] | 0.032 µM |
| CC(C)S(=O)(=O)Nc1ccc(F)c(-n2cc(-c3cncc(N4CCN(CC5CC5)CC4)c3)nn2)c1F [Example I-22] | 0.231 µM |
| CCCS(=O)(=O)Nc1ccc(F)c(-n2cc(-c3cncc(N4CCC(N5CCOCC5)CC4)c3)nn2)c1F [Example I-8] | 0.305 µM |
| CC(C)CS(=O)(=O)Nc1ccc(F)c(-n2cc(-c3cncc(N4CCN(C(C)C)CC4)c3)nn2)c1F [Example I-26] | 0.098 µM |
| CC(C)CS(=O)(=O)Nc1ccc(F)c(-n2cc(-c3cncc(N4CCN(C(C)(C)C)CC4)c3)nn2)c1F [Example I-27] | 0.096 µM |
| CCN1CCN(c2cncc(-c3cn(-c4c(F)ccc(NS(=O)(=O)c5ccoc5)c4Cl)nn3)c2)CC1 [Example I-74] | 0.005 µM |
| CC(C)S(=O)(=O)Nc1ccc(F)c(-n2cc(-c3cncc(N4CCN(C)CC4)c3)nn2)c1F [Example I-23] | 0.459 µM |

Other lines, results leading:

| EC50 | SMILES |
| --- | --- |
| 0.153 µM | CCCS(=O)(=O)Nc1ccc(F)c(-n2cc(-c3cncc(N4CCN(CC#N)CC4)c3)nn2)c1F [Example I-52] |
| 0.493 µM | COc1cncc(-c2cn(-c3c(F)ccc(NS(=O)(=O)C(C)C)c3F)nn2)c1 [Example I-19] |
| 0.671 µM | CCCS(=O)(=O)Nc1ccc(F)c(-n2cc(-c3cncc(OC4CCOCC4)c3)nn2)c1F [Example I-33] |
| 0.279 µM | CCCS(=O)(=O)Nc1ccc(F)c(-n2cc(-c3cncc(Br)c3)nn2)c1F [Example I-7] |
| 0.114 µM | CCCS(=O)(=O)Nc1ccc(F)c(-n2cc(-c3cncc(N4CCN(C5COC5)CC4)c3)nn2)c1F [Example I-51] |
| 0.545 µM | CCCS(=O)(=O)Nc1ccc(F)c(-n2cc(-c3cncc(-n4cc(C)nc4C)c3)nn2)c1F [Example I-48] |
| 0.432 µM | CCCCS(=O)(=O)Nc1ccc(F)c(-n2cc(-c3cncc(OC)c3)nn2)c1F [Example I-43] |
| 0.006 µM | CC(C)N1CCN(c2cncc(-c3cn(-c4c(F)ccc(NS(=O)(=O)c5ccoc5)c4Cl)nn3)c2)CC1 [Example I-68] |
| 0.005 µM | CC(C)(C)N1CCN(c2cncc(-c3cn(-c4c(F)ccc(NS(=O)(=O)c5ccoc5)c4Cl)nn3)c2)CC1 [Example I-69] |
| 0.01 µM | CC(C)N1CCN(c2cncc(-c3cn(-c4c(F)ccc(NS(=O)(=O)c5ccoc5)c4F)nn3)c2)CC1 [Example I-61] |

— patent US8710055B2, “Triazolylphenyl sulfonamides as serine/threonine kinase inhibitors” (Boehringer Ingelheim International GmbH, priority 2010, dated 2014)
